Laboratory results as given in patent US11883422B2, “Glycan therapeutic compositions and related methods thereof” (DSM Nutritional Products, LLC, priority 2015, dated 2024).

Test system: colonic propulsion in morphine-treated mice
Assay: Mouse model of opioid-induced constipation: colonic propulsion (bead expulsion) after morphine
Format: in vivo
Experimental: This study was conducted to analyze the effects of glycan therapeutics in a mouse model of opioid-induced constipation. In this model, normal mice are dosed with glycan or control for several days and then administered a dose of morphine sufficient to produce decreased gastrointestinal (GI) transit and colonic propulsion (Coates et al. 2006 Neurogastroenterol Motil 18:464-471). In humans, morphine and related opiate drugs are known to cause constipation. They act on neurons in the myenteric plexus as mu-opioid receptor agonists, leading to decreased GI motility and propulsion. The proportion of the US adult population who take opiates chronically (non-cancer patients), is roughly 4%. In an observational study of patients on opiates for chronic pain, 47% experienced constipation (Tuteja et al. […] Neurogastroenterol Motil 22: 424-430). There is evidence that chronic constipation can predispose individuals to benign GI neoplasms and colorectal cancer. […]
Several drug toxicities affecting GI motility (e.g. causing constipation or diarrhea) in cancer are also related to or associated with other immune imbalances and nutritional imbalances. […] Colonic propulsion was assessed as follows: thirty minutes post morphine dosing, a 3 mm glass bead was inserted at a depth of 2 cm into the distal colon through each mouse's anus. […]

C=CCN1CC[C@]23c4c5ccc(O)c4O[C@H]2C(=O)CC[C@@]3(O)[C@H]1C5 [naloxone]
responders (reduction in expulsion of >25% of maximum expulsion time, 1350 seconds) (1% in drinking water for 11 days (naloxone 30 minutes prior to morphine), morphine 3 mg/kg subcutaneously): 6/8
effect in this mouse model of colonic propulsion (third analysis, responder versus non-responder animals, cutoff 1800 seconds): reversing the effects of morphine
